Some results are limits rather than exact numbers.

These results are taken from patent publication US20260085062A1, “NOVEL COMPOUNDS AS CK2 INHIBITORS” (Cambridge Enterprise Limited, priority 2022, published 2026).

Assay [1] concerns the target T1, CK2α (Homo sapiens, UniProt P68400).
T1 construct: CK2α (residues 2-329) was produced in Escherichia coli BL21 (DE3) for kinase activity screening; His6 (N, cleaved yes); made in house; host or cells: Escherichia coli BL21 (DE3)
T1 sequence (P68400 2-329): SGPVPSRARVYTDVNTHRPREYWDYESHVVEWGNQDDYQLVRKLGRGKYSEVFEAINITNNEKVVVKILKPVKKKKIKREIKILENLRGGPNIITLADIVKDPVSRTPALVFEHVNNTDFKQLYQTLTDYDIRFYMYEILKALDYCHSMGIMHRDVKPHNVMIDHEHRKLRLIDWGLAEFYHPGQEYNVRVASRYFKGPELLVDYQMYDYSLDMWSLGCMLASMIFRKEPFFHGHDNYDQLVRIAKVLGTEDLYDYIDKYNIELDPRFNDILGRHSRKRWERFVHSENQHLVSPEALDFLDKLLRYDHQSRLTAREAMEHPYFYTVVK
The assay can be described thus: Biochemical assay for inhibitors of CK2α kinase activity (ADP-Glo). The conditions noted are these: 0.2 nM CK2α, 50 μM peptide substrate, 15 μM ATP, read-out: Assay 1: CK2α Enzyme IC50. In general terms: ADP-Glo first removes unused ATP, then detects ADP through luciferase.

In assay [2] the target is T2, CLK2 (Homo sapiens, UniProt P49760).
T2 construct: purchased Carna Biosciences 04-127
Put plainly: Biochemical assay for inhibitors of CLK2 kinase activity (ADP-Glo). The note with it: 20 nM CLK2, 50 μM peptide substrate, 100 μM ATP, read-out: Assay 2: CLK2 Enzyme IC50.

Assay [3] has as its target T3, intracellular CK2α (Homo sapiens, UniProt P19784).
T3 construct: host or cells: HCT116 (ATCC CCL-247)
The assay can be described thus: Cell-based NanoBRET assay for inhibitor binding to intracellular CK2α. The conditions noted are these: HCT116 cells transiently transfected with CSNK2A2-NanoLuc fusion vector; Tracer K-5; 2 h; read-out: Assay 3: NanoBRET ™ assay for binding to intracellular CK2α. An outline of the steps: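 Living cells expressing NanoLuc-CK2α fusion were given a fixed tracer concentration, and compounds competitively displaced the reversibly bound tracer. Donor (450 nm) and acceptor (610 or 630 nm) emissions were read; BRET ratio = (acceptor/donor)×1,000, giving apparent intracellular affinity.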
In general terms: BRET reads energy transfer from a luciferase to a nearby fluorophore.

T2 sequence (P49760 whole entry): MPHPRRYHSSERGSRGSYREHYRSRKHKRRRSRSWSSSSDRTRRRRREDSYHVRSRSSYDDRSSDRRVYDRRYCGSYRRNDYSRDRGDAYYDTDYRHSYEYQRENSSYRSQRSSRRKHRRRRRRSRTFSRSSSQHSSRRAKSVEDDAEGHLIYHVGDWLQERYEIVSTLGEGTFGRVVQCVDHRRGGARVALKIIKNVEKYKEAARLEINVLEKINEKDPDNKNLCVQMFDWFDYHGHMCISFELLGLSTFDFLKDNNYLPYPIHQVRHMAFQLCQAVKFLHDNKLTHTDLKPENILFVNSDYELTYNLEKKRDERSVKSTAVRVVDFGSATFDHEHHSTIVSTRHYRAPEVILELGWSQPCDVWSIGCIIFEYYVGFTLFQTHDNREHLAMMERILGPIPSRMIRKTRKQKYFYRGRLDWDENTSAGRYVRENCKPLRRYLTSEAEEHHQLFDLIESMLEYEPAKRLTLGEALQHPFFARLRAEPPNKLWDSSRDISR
T3 sequence (P19784 whole entry): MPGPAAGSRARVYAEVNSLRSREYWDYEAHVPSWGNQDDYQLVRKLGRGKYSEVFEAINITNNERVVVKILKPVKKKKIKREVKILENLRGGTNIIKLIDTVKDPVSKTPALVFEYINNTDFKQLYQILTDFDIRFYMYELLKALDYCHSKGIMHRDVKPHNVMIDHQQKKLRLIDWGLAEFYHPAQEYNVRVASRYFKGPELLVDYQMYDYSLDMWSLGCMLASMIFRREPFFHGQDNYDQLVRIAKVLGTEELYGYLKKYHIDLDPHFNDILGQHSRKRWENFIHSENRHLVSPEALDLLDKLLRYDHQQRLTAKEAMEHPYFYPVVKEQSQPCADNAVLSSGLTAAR

Regarding `N#CCc1cc(CNCCCCOC2CN(c3cc(-c4ccnnc4)cc4[nH]ncc34)C2)cc(C(F)(F)F)c1` [Example 114, 2-(3-(((4-((1-(6-(pyridazin-4-yl)-1H-indazol-4-yl)azetidin-3-yl)oxy)butyl)amino)methyl)-5-(trifluoromethyl)phenyl)acetonitrile], the IC50 in assay [1] was found to be 50.5 nM; in assay [2], 2150 nM; in assay [3] it was 2520 nM.

`Cc1cc(CC#N)cc(CNCCCCOC2CN(c3cc(-c4ccnnc4)cc4[nH]ncc34)C2)c1` [Example 115, 2-(3-methyl-5-(((4-((1-(6-(pyridazin-4-yl)-1H-indazol-4-yl)azetidin-3-yl)oxy)butyl)amino)methyl)phenyl)acetonitrile]: the results for the IC50 in assay [1], in assay [2] and in assay [3] were 115 nM, 6460 nM and 9910 nM, respectively.

Turning to `FC(F)(F)c1ccc2[nH]c(CNCCCCOCCOc3cc(-n4cnnc4)cc4[nH]nnc34)cc2c1` [Example 116, 4-(2-((6-(4H-1,2,4-triazol-4-yl)-1H-benzo[d][1,2,3]triazol-4-yl)oxy)ethoxy)-N-((5-(trifluoromethyl)-1H-indol-2-yl)methyl)butan-1-amine], the values for the IC50 in assay [1], in assay [2] and in assay [3] were 247 nM, above 50000 nM and above 50000 nM, respectively.

In the case of `FC(F)(F)c1ccc2[nH]c(CNCCCCOCCOc3cc(-n4cnnc4)cc4[nH]ncc34)cc2c1` [Example 117, 4-(2-((6-(4H-1,2,4-triazol-4-yl)-1H-indazol-4-yl)oxy)ethoxy)-N-((5-(trifluoromethyl)-1H-indol-2-yl)methyl)butan-1-amine], the IC50 in assay [1] came out at 3 nM; in assay [2], 1260 nM; in assay [3], 214 nM.

As for `c1cc2[nH]c(CNCCCCOCCOc3cc(-n4cnnc4)cc4[nH]ncc34)cc2cc1OC1CCC1` [Example 118, 4-(2-((6-(4H-1,2,4-triazol-4-yl)-1H-indazol-4-yl)oxy)ethoxy)-N-((5-cyclobutoxy-1H-indol-2-yl)methyl)butan-1-amine], the IC50 in assay [1] is 0.86 nM; in assay [2] it was 1100 nM; in assay [3], 204 nM.

Consider `c1cc2[nH]c(CNCCCCOC3CN(c4cc(-c5cnoc5)cc5[nH]ncc45)C3)cc2cc1OC1CCC1` [Example 119, N-((5-cyclobutoxy-1H-indol-2-yl)methyl)-4-((1-(6-(isoxazol-4-yl)-1H-indazol-4-yl)azetidin-3-yl)oxy)butan-1-amine], for which the IC50 worked out at 22.6 nM in assay [1], 617 nM in assay [2] and 1620 nM in assay [3].

Turning to `OCc1cc(CNCCCCOC2CN(c3cc(-c4cnoc4)cc4[nH]ncc34)C2)cc(C(F)(F)F)c1` [Example 120, (3-(((4-((1-(6-(isoxazol-4-yl)-1H-indazol-4-yl)azetidin-3-yl)oxy)butyl)amino)methyl)-5-(trifluoromethyl)phenyl)methanol], the IC50 came out at 84.6 nM in assay [1], 141 nM in assay [2] and 3250 nM in assay [3].

Regarding `Cc1cc(CC#N)cc(CNCCCCOC2CN(c3cc(-c4cnoc4)cc4[nH]ncc34)C2)c1` [Example 121, 2-(3-(((4-((1-(6-(isoxazol-4-yl)-1H-indazol-4-yl)azetidin-3-yl)oxy)butyl)amino)methyl)-5-methylphenyl)acetonitrile], the figures for the IC50 in assay [1], in assay [2] and in assay [3] were 44.9 nM, 209 nM and 3670 nM, respectively.

As to `N#CCc1cc(Cl)cc(CNCCCCOC2CN(c3cc(-c4cnoc4)cc4[nH]ncc34)C2)c1` [Example 122, 2-(3-chloro-5-(((4-((1-(6-(isoxazol-4-yl)-1H-indazol-4-yl)azetidin-3-yl)oxy)butyl)amino)methyl)phenyl)acetonitrile], the figures for the IC50 in assay [1], in assay [2] and in assay [3] were 29.8 nM, 106 nM and 840 nM, respectively.

Turning to `FC(F)(F)Oc1ccc(CNCCCCOCCOc2cc(-n3cnnc3)cc3[nH]nnc23)cc1Cl` [Example 123, 4-(2-((6-(4H-1,2,4-triazol-4-yl)-1H-benzo[d][1,2,3]triazol-4-yl)oxy)ethoxy)-N-(3-chloro-4-(trifluoromethoxy)benzyl)butan-1-amine], the IC50 is 306 nM in assay [1], 44700 nM in assay [2] and above 50000 nM in assay [3].

For the molecule `c1cc2[nH]c(CNCCCCOC3CN(c4cc(-n5cnnc5)cc5[nH]ncc45)C3)cc2cc1OC1CCC1` [Example 124, 4-((1-(6-(4H-1,2,4-triazol-4-yl)-1H-indazol-4-yl)azetidin-3-yl)oxy)-N-((5-cyclobutoxy-1H-indol-2-yl)methyl)butan-1-amine], the IC50 in assay [1] came out at 7.44 nM; in assay [2], 134 nM; in assay [3], 1990 nM.

Take `OCc1cc(F)cc(CNCCCCOC2CN(c3cc(-n4cnnc4)cc4[nH]ncc34)C2)c1` [Example 125, (3-(((4-((1-(6-(4H-1,2,4-triazol-4-yl)-1H-indazol-4-yl)azetidin-3-yl)oxy)butyl)amino)methyl)-5-fluorophenyl)methanol]: the IC50 came out at 162 nM in assay [1], 152 nM in assay [2] and 49200 nM in assay [3].

As to `FC(F)(F)Oc1ccc(CNCCCCOCCNc2cc(-n3cnnc3)cc3[nH]nnc23)cc1Cl` [Example 126, N-(2-(4-((3-chloro-4-(trifluoromethoxy)benzyl)amino)butoxy)ethyl)-6-(4H-1,2,4-triazol-4-yl)-1H-benzo[d][1,2,3]triazol-4-amine], the figures for the IC50 in assay [1], in assay [2] and in assay [3] were 11.1 nM, 18100 nM and 3630 nM, respectively.

Regarding `FC(F)(F)c1ccc2[nH]c(CNCCCCOC3CN(c4cc(-n5cnnc5)cc5[nH]ncc45)C3)cc2c1` [Example 128, 4-((1-(6-(4H-1,2,4-triazol-4-yl)-1H-indazol-4-yl)azetidin-3-yl)oxy)-N-((5-(trifluoromethyl)-1H-indol-2-yl)methyl)butan-1-amine], the results for the IC50 in assay [1], in assay [2] and in assay [3] were 3.96 nM, 187 nM and above 50000 nM, respectively.

`Fc1cc(CNCCCCOC2CN(c3cc(-n4cnnc4)cc4[nH]ncc34)C2)ccc1OC(F)(F)F` [Example 129, 4-((6-(6-(4H-1,2,4-triazol-4-yl)-1H-indazol-4-yl)azetidine-3-yl)oxy)-N-(3-fluoro-4-(trifluoromethoxy)benzyl)butan-1-amine]: the IC50 in assay [1] was 23.5 nM; in assay [2], 494 nM; in assay [3], above 50000 nM.

Consider `OCc1cc(Cl)cc(CNCCCCOC2CN(c3cc(-n4cnnc4)cc4[nH]ncc34)C2)c1` [Example 130, (3-(((4-((1-(6-(4H-1,2,4-triazol-4-yl)-1H-indazol-4-yl)azetidin-3-yl)oxy)butyl)amino)methyl)-5-chlorophenyl)methanol], for which the IC50 in assay [1] stood at 106 nM; in assay [2], 326 nM; in assay [3], 15400 nM.

For `N#CCc1cc(Cl)cc(CNCCCCOC2CN(c3cc(-n4cnnc4)cc4[nH]ncc34)C2)c1` [Example 131, 2-(3-(((4-((1-(6-(4H-1,2,4-triazol-4-yl)-1H-indazol-4-yl)azetidin-3-yl)oxy)butyl)amino)methyl)-5-chlorophenyl)acetonitrile], the IC50 was determined as 28.1 nM in assay [1], 146 nM in assay [2] and 3000 nM in assay [3].

Turning to `FC(F)(F)Oc1ccc(CNCCCCOC2CN(c3cc(-n4cnnc4)cc4[nH]ncc34)C2)cc1Cl` [Example 132, 4-((1-(6-(4H-1,2,4-triazol-4-yl)-1H-indazol-4-yl)azetidin-3-yl)oxy)-N-(3-chloro-4-(trifluoromethoxy)benzyl)butan-1-amine], the figures for the IC50 in assay [1], in assay [2] and in assay [3] were 10.9 nM, 442 nM and 869 nM, respectively.

For `N#CCc1cc(Cl)cc(CNCCCCOC2CN(c3cc(-c4ccnnc4)cc4[nH]ncc34)C2)c1` [Example 133, 2-(3-chloro-5-(((4-((1-(6-(pyridazin-4-yl)-1H-indazol-4-yl)azetidin-3-yl)oxy)butyl)amino)methyl)phenyl)acetonitrile], the IC50 came out at 31.5 nM in assay [1], 2040 nM in assay [2] and 3070 nM in assay [3].

Turning to `N#CCc1cc(CNCCCCOC2CN(c3cc(-c4ccnnc4)cc4[nH]ncc34)C2)cc(OC(F)(F)F)c1` [Example 134, 2-(3-(((4-((1-(6-(pyridazin-4-yl)-1H-indazol-4-yl)azetidin-3-yl)oxy)butyl)amino)methyl)-5-(trifluoromethoxy)phenyl)acetonitrile], the IC50 in assay [1] is 5.25 nM; in assay [2], 2680 nM; in assay [3] it was 809 nM.

On to `Fc1cc(CNCCCCOC2CN(c3cc(-c4cnoc4)cc4[nH]ncc34)C2)ccc1OC(F)(F)F` [Example 135, N-(3-fluoro-4-(trifluoromethoxy)benzyl)-4-((1-(6-(isoxazol-4-yl)-1H-indazol-4-yl)azetidin-3-yl)oxy)butan-1-amine], for which the IC50 in assay [1] turned out to be 13.3 nM; in assay [2], 230 nM; in assay [3] it was 1830 nM.
